The values below come from paper PMC6848146, “Binding and structural analyses of potent inhibitors of the human Ca^2+/calmodulin dependent protein kinase kinase 2 (CAMKK2) identified from a collection of commercially-available kinase inhibitors” (Scientific Reports, 2019).

In assay [1] the target is T1, CAMKK2-KD (kinase domain of CAMKK2) (Homo sapiens, UniProt Q96RR4).
T1 construct: the protein kinase domain (amino acids 161–449); hexahistidine (6xHis), TEV-cleavable; made in house
Kind of assay: DSF thermal-shift screen, 384-well format. Format: binding. The note with it: 10 µM compound, 1 µM kinase, 0.1% DMSO, single measurement. As to the method: (§1) We employed a thermal-shift assay (Differential Scanning Fluorimetry, DSF)[19] to identify compounds that can bind to the kinase domain of CAMKK2 (CAMKK2-KD). Protein thermal denaturation curves (Fig. 1A,B) were used to calculate the denaturation midpoint temperature (Tm) for the kinase domain of CAMKK2 in the presence of ligands or vehicle only (DMSO). […] DSF screens were performed on purified CAMKK2-KD using a library of commercially available, chemically diverse, ATP-competitive, kinase inhibitors.
DSF experiments in 384-well format followed a protocol previously established at the SGC-UNICAMP and described elsewhere.
The compounds, previously solubilized in DMSO, were used at 10 µM final concentration and 0.1% DMSO. Plates were sealed using optically clear films and transferred to a QuantStudio 6 qPCR instrument (Applied Biosystems). […] Protein in 0.1% DMSO was used as a reference.
(§2) For both formats, experiments were performed in singlets.

The target of another assay is T2, CAMKK2-FL (Homo sapiens, UniProt Q96RR4).
T2 construct: an enzymatic assay using the full-length protein (CAMKK2-FL); purchased Eurofins Discovery (MO, USA), assay service
Kind of assay: Radiometric enzymatic assay (Eurofins Discovery), Ca2+/Calmodulin present. Type of assay: biochemical. The note with it: for IC50: 90 µM ATP, single measurement; for fold more active towards CAMKK2-FL than CAMKK1-FL: from IC50 values of Table 1.

For another assay, the target named is T3, CAMKK1-FL (Homo sapiens, UniProt Q8N5S9).
T3 construct: purchased Eurofins Discovery (MO, USA), assay service
The description is as above. Type of assay: biochemical. The note with it: 200 µM ATP; single measurement. As to the method: All compounds employed in this study were initially developed to target other human protein kinases, and some are known to be quite promiscuous[18],[21].
Reaction conditions for assays using CAMKK1-FL were: 8 mM MOPS pH 7.0, 0.2 mM EDTA, 0.33 mg/mL MBP (myelin basic protein), 0.5 mM calcium chloride, 0.016 mg/ml calmodulin, 10 mM magnesium acetate and [gamma-^33P-ATP] (200 µM). […] The reactions were initiated by the addition of a Mg^2+-ATP mixture. After incubation for 40 minutes at room temperature, the reaction was stopped by the addition of phosphoric acid to a final concentration of 0.5%. […] Following subtraction of the average inhibitor control well counts, results were expressed as a percentage of the mean kinase activity in the positive control sample.

The target of another assay is CAMKK2-KD (Homo sapiens, UniProt Q96RR4). Briefly: Isothermal titration calorimetry (reverse titration). The note with it: 20 °C.
For assay [2], the system named is six other kinases (panel of 92 protein kinases). Also noted: method as in PMID 17850214. The note with it: screened against a panel of only 92 protein kinases; cited from earlier work.
A further assay relates to CAMKK2. More on the design: method as in Anastassiadis et al. (2011). To be noted: 0.5 µM compound; ref Anastassiadis et al. (2011); cited from earlier work.
In the next assay the test system is CAMKK1. More on the design: method as in Anastassiadis et al. (2011). The note with it: 0.5 µM compound; ref Anastassiadis et al. (2011); cited from earlier work.
Assay [3] concerns the target T1, CAMKK2-KD (kinase domain of CAMKK2). Briefly: DSF thermal-shift screen, 96-well format. Format: binding. The note with it: 96-well format, 12 µM compound, 2 µM kinase, 2.5% DMSO, single measurement. As to the method:
as §1
SYPRO Orange dye (Invitrogen) was used in 5X as final concentration.
Plates were sealed using optically clear films and transferred to an Mx3005p RT-PCR machine (Agilent).
as §2

Where [4] appears, read: individual ITC experiment, run 1.
[5] abbreviates: individual ITC experiment, run 2.

Where two headings read alike, the source gives them in different places. Marks after values point to notes of the source that are not given here.

T1 sequence (Q96RR4 161-449): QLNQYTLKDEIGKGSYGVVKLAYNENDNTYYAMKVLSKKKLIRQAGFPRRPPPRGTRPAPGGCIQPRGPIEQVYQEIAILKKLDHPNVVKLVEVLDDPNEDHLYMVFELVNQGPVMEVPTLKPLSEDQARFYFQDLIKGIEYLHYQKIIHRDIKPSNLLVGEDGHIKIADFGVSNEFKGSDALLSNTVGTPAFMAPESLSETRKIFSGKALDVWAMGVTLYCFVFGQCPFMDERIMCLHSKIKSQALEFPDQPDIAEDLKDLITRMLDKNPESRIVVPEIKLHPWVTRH
Chain of CAMKK2-KD (Q96RR4 161-449): as above

As usually defined, the ΔTm is the shift of the melting midpoint relative to a reference. The term IC50 denotes the concentration that inhibits the measured activity by half. The term Kd denotes the free concentration of one partner at which half of the binding sites on the other are occupied at equilibrium, for simple one-to-one binding. Regarding `COCCOc1ccc2c(c1)ncn2-c1ccc2cccc(N3CCC(N)CC3)c2n1` [CP-673451], the ΔTm at 10 µM in assay [1] stood at 10 °C. The values for the IC50 at CAMKK2-FL and against CAMKK1-FL were 19 nM and 122 nM, respectively. Moreover, the “fold more active towards CAMKK2-FL than CAMKK1-FL” value on CAMKK2-FL is ~ 10 fold. In addition, the Kd at CAMKK2-KD (ITC KD, serial integrations of two independent experiments) was 2 nM; at CAMKK2-KD (KD Run 1, individual ITC experiment, run 1), 2.6 nM; on CAMKK2-KD (KD Run 2, individual ITC experiment, run 2) it was 1.5 nM. For the same compound, at CAMKK2-KD (setting [4]), the “ΔG Run 1” value was -11.5 kcal/mol. In addition, the “ΔH Run 1” value on CAMKK2-KD (setting [4]) is -13.2 kcal/mol. On CAMKK2-KD (setting [5]), the “ΔG Run 2” value is -11.8 kcal/mol. For the same compound, the “ΔH Run 2” value on CAMKK2-KD (setting [5]) was -13 kcal/mol.
With `COc1cc(N2CCC(N(C)C)CC2)ccc1Nc1ncc(Cl)c(Nc2ccccc2P(C)(C)=O)n1` [ALK-IN-1], the ΔTm in assay [1] is 11.2^d °C. For the same compound, the “fold more active towards CAMKK2-FL than CAMKK1-FL” value on CAMKK2-FL is ~ 10 fold. On CAMKK1-FL, this compound showed an IC50 of 182 nM. Further, the “ΔH Run 1” value on CAMKK2-KD (setting [4]) was -10.3 kcal/mol. The “ΔG Run 2” value on CAMKK2-KD (setting [5]) is -10.9 kcal/mol. For the same compound, the “ΔH Run 2” value at CAMKK2-KD (setting [5]) is -9.73 kcal/mol. Further, the Kd on CAMKK2-KD (read-out: ITC KD, serial integrations of two independent experiments) was found to be 2 nM; on CAMKK2-KD (read-out: KD Run 1, individual ITC experiment, run 1) it was 2.5 nM; at CAMKK2-KD (read-out: KD Run 2, individual ITC experiment, run 2) it was 2 nM.
Consider `O=C(O)c1ccc2c3c1cccc3c(=O)n1c3ccccc3nc21` [STO-609], for which the IC50 in assay [2] is under 250 nM.
For `CN[C@@H]1C[C@H]2O[C@@](C)([C@@H]1OC)n1c3ccccc3c3c4c(c5c6ccccc6n2c5c31)C(=O)NC4` [Staurosporine], the “% Activity Remaining at 0.5 µM, CAMKK2” value in the assay with CAMKK2 is given as 0.24%. For the same compound, the “% Activity Remaining at 0.5 µM, CAMKK1” value in the assay with CAMKK1 was -3.13%.
`COC(=O)[C@@]1(O)C[C@H]2O[C@]1(C)n1c3ccccc3c3c4c(c5c6ccccc6n2c5c31)C(=O)NC4` [K252a]: the ΔTm in assay [3] is 18.3^e °C. The results for the IC50 on CAMKK2-FL and at CAMKK1-FL were 50 nM and 51 nM, respectively.
Take `CC(C)[C@H](CO)Nc1nc(Nc2cc(N)cc(Cl)c2)c2ncn(C(C)C)c2n1` [Aminopurvalanol]: in assay [3] (read-out: ΔTm), the thermal shift (ΔTm) at 12 µM amounted to 9.7 °C. In addition, the IC50 was found to be 159 nM at CAMKK2-FL and 188 nM on CAMKK1-FL. The “% Activity Remaining at 0.5 µM, CAMKK2” value in the assay on CAMKK2 was 33.3%. Further, the “% Activity Remaining at 0.5 µM, CAMKK1” value in the assay on CAMKK1 was 86.8%.
